In brackets after ≈: the same amount, converted by molar mass.
Assays:
Assay type in all cases: functional
[1] = test system: Escherichia coli; experiment: Antibacterial activity against Escherichia coli isolate 47 expressing qnr B19 gene after 24 hrs by twofold serial dilution method; conditions: Escherichia coli, isolate 47, 24 h
[2] = test system: Staphylococcus aureus; experiment: Antibacterial activity against Staphylococcus aureus after 24 hrs by twofold serial dilution method; conditions: Staphylococcus aureus, 24 h
[3] = test system: Escherichia coli; experiment: Antibacterial activity against Escherichia coli JM109 after 24 hrs by twofold serial dilution method; conditions: Escherichia coli, JM109, 24 h
[4] = test system: Escherichia coli; experiment: Antibacterial activity against Escherichia coli isolate 21 after 24 hrs by twofold serial dilution method; conditions: Escherichia coli, isolate 21, 24 h
[5] = test system: Escherichia coli; experiment: Antibacterial activity against Escherichia coli isolate 191 expressing qnr S1 gene after 24 hrs by twofold serial dilution method; conditions: Escherichia coli, isolate 191, 24 h
[6] = test system: Klebsiella pneumoniae; experiment: Antibacterial activity against Klebsiella pneumoniae isolate 204 expressing qnr B19 gene after 24 hrs by twofold serial dilution method; conditions: Klebsiella pneumoniae, isolate 204, 24 h
[7] = test system: Escherichia coli; experiment: Antibacterial activity against Escherichia coli XL-1Blue after 24 hrs by twofold serial dilution method; conditions: Escherichia coli, XL-1Blue, 24 h
[8] = test system: Escherichia coli; experiment: Antibacterial activity against Escherichia coli isolate 85 expressing GyrA S83L mutant after 24 hrs by twofold serial dilution method; conditions: isolate 85, 24 h
[9] = test system: Escherichia coli; experiment: Antibacterial activity against Escherichia coli isolate 13 after 24 hrs by twofold serial dilution method; conditions: Escherichia coli, isolate 13, 24 h
[10] = test system: Klebsiella pneumoniae; experiment: Antibacterial activity against Klebsiella pneumoniae isolate 328 expressing qnr B19 gene, GyrA D87G mutant after 24 hrs by twofold serial dilution method; conditions: isolate 328, 24 h
[11] = test system: Escherichia coli; experiment: Antibacterial activity against Escherichia coli isolate 24 after 24 hrs by twofold serial dilution method; conditions: Escherichia coli, isolate 24, 24 h
[12] = test system: Klebsiella pneumoniae; experiment: Antibacterial activity against Klebsiella pneumoniae isolate 5 expressing qnr B19 gene, GyrA D87G mutant after 24 hrs by twofold serial dilution method; conditions: isolate 5, 24 h
[13] = test system: Klebsiella pneumoniae; experiment: Antibacterial activity against Klebsiella pneumoniae isolate 110 expressing qnr B19 gene, GyrA D87G mutant after 24 hrs by twofold serial dilution method; conditions: isolate 110, 24 h
[14] = test system: Escherichia coli; experiment: Antibacterial activity against Escherichia coli isolate 50 expressing qnr B19 gene after 24 hrs by twofold serial dilution method; conditions: Escherichia coli, isolate 50, 24 h
[15] = test system: Escherichia coli; experiment: Antibacterial activity against Escherichia coli JM110 after 24 hrs by twofold serial dilution method; conditions: Escherichia coli, JM110, 24 h
[16] = test system: Klebsiella pneumoniae; experiment: Antibacterial activity against Klebsiella pneumoniae isolate 172 expressing qnr B19 gene, GyrA D87G mutant after 24 hrs by twofold serial dilution method; conditions: isolate 172, 24 h
[17] = test system: Klebsiella pneumoniae; experiment: Antibacterial activity against Klebsiella pneumoniae isolate 92 after 24 hrs by twofold serial dilution method; conditions: Klebsiella pneumoniae, isolate 92, 24 h
[18] = test system: Klebsiella pneumoniae; experiment: Antibacterial activity against Klebsiella pneumoniae isolate 16 expressing qnr B19 gene, GyrA D87G mutant after 24 hrs by twofold serial dilution method; conditions: isolate 16, 24 h
[19] = test system: Klebsiella pneumoniae; experiment: Antibacterial activity against Klebsiella pneumoniae isolate 173 after 24 hrs by twofold serial dilution method; conditions: Klebsiella pneumoniae, isolate 173, 24 h
[20] = test system: Escherichia coli; experiment: Antibacterial activity against Escherichia coli Top10 after 24 hrs by twofold serial dilution method; conditions: Escherichia coli, Top10, 24 h
[21] = test system: Klebsiella pneumoniae; experiment: Antibacterial activity against Klebsiella pneumoniae isolate 97 expressing qnr B19 gene after 24 hrs by twofold serial dilution method; conditions: Klebsiella pneumoniae, isolate 97, 24 h
[22] = test system: Escherichia coli; experiment: Antibacterial activity against Escherichia coli HB101 after 24 hrs by twofold serial dilution method; conditions: Escherichia coli, HB101, 24 h
[23] = test system: Escherichia coli; experiment: Antibacterial activity against Escherichia coli isolate 41 after 24 hrs by twofold serial dilution method; conditions: Escherichia coli, isolate 41, 24 h
[24] = test system: Escherichia coli; experiment: Antibacterial activity against Escherichia coli isolate 95 expressing GyrA S83L mutant after 24 hrs by twofold serial dilution method; conditions: isolate 95, 24 h
[25] = test system: Escherichia coli; experiment: Antibacterial activity against Escherichia coli isolate 9 expressing qnr B19 gene, GyrA D87G, ParC S80I mutant after 24 hrs by twofold serial dilution method; conditions: isolate 9, 24 h
[26] = test system: Klebsiella pneumoniae; experiment: Antibacterial activity against Klebsiella pneumoniae isolate 134 after 24 hrs by twofold serial dilution method; conditions: Klebsiella pneumoniae, isolate 134, 24 h
[27] = test system: Klebsiella pneumoniae; experiment: Antibacterial activity against Klebsiella pneumoniae isolate 91 after 24 hrs by twofold serial dilution method; conditions: Klebsiella pneumoniae, isolate 91, 24 h
[28] = test system: Escherichia coli; experiment: Antibacterial activity against Escherichia coli isolate 7 after 24 hrs by twofold serial dilution method; conditions: Escherichia coli, isolate 7, 24 h
[29] = test system: Klebsiella pneumoniae; experiment: Antibacterial activity against Klebsiella pneumoniae isolate 370 expressing qnr B19 gene, GyrA D87G mutant after 24 hrs by twofold serial dilution method; conditions: isolate 370, 24 h
[30] = test system: Escherichia coli; experiment: Antibacterial activity against Escherichia coli isolate 115 expressing GyrA S83L mutant after 24 hrs by twofold serial dilution method; conditions: isolate 115, 24 h

## O=C(O)c1cn(C2CC2)c2cc(N3CCNCC3)c(F)cc2c1=O [CIPROFLOXACIN]
[1]
  MIC90: < 0.25 µg/mL
[2]
  MIC90: > 4 µg/mL
[3]
  MIC90: > 4 µg/mL
[4]
  MIC90: 4 µg/mL (≈ 12.1 µM)
[5]
  MIC90: 1 µg/mL (≈ 3.02 µM)
[6]
  MIC90: 0.75 µg/mL (≈ 2.26 µM)
[7]
  MIC90: > 4 µg/mL
[8]
  MIC90: 0.5 µg/mL (≈ 1.51 µM)
[9]
  MIC90: > 4 µg/mL
[10]
  MIC90: > 4 µg/mL
[11]
  MIC90: < 0.25 µg/mL
[12]
  MIC90: < 0.25 µg/mL
[13]
  MIC90: < 0.25 µg/mL
[14]
  MIC90: < 0.25 µg/mL
[15]
  MIC90: > 4 µg/mL
[16]
  MIC90: < 0.25 µg/mL
[17]
  MIC90: < 0.25 µg/mL
[18]
  MIC90: 2 µg/mL (≈ 6.04 µM)
[19]
  MIC90: > 4 µg/mL
[20]
  MIC90: < 0.25 µg/mL
[21]
  MIC90: < 0.25 µg/mL
[22]
  MIC90: < 0.25 µg/mL
[23]
  MIC90: < 0.25 µg/mL
[24]
  MIC90: 1 µg/mL (≈ 3.02 µM)
[25]
  MIC90: > 4 µg/mL
[26]
  MIC90: < 0.25 µg/mL
[27]
  MIC90: > 4 µg/mL
[28]
  MIC90: > 4 µg/mL
[29]
  MIC90: > 4 µg/mL
[30]
  MIC90: 0.5 µg/mL (≈ 1.51 µM)

From ChEMBL document CHEMBL1157738, “Simocyclinone D8 turns on against Gram-negative bacteria in a clinical setting” (2010)
